Measurements from US20050032863A1, “Method of treating or preventing central nervous system disorders with compounds having selectivity for the alpha 3 subunit of the benzodiazepine receptor” (priority 2003, published 2005).

Tests used:
[1] = tested on: male Wistar rats; experiment: Rat forced swim test; format: in vivo
Method: All animals were treated with verum or vehicle three times: shortly after the habituation session (23 h), 5 and 1 h prior to testing. All drugs were administered orally with an application volume of 1 ml/kg.
The animals were tested in a glass tank (23×30 cm, height 40 cm) filled to a depth of 28 cm with water at 22° C. (the animals could not touch the bottom). The glass tank was illuminated indirectly and was surrounded by dark brown shading walls (distance from the tank 20 cm) to prevent the view on the experimenter. The experiments were performed between 14:00 and 17:00 hours and the method was in general performed as described (Porsolt et al., 1979; Lucki, 1997).
On the first experimental day, rats were gently placed in the water for a 15 min period of habituation. On removal from the water, they were placed in a standard plexiglass box, the floor covered with paper towels, under an infrared heater for 30 min to dry. The next day, they were once more placed gently in the glass tank and observed for 5 min. The behaviour of the animals was video-taped.
Following the experiment the video tapes were analysed manually and the duration of the following behaviours was recorded: Immobility: floating and making only those movements necessary to keep the nose above the water. […] Climbing: when rats strongly move their forepaws in and out of the water, usually against the walls.

[2] = tested on: female Wistar rats, MK-801-induced stereotypies, hyperactivity and ataxia; experiment: MK-801-induced psychosis-related behaviour and reversibility by flumazenil (Example 7); format: in vivo, rat; conditions: for effect on other stereotypies when flumazenil is added: 30 mg/kg p.o. + flumazenil 5 mg/kg
Method: Apart from the haloperidol rats which received haloperidol 30 minutes and MK-801 10 minutes prior to the test, the other test groups received haloperidol, ELB139 or vehicle 60 minutes prior to test, saline or flumazenil 20 minutes prior to test and MK-801 10 minutes prior to test.
The behaviour induced by the NMDA antagonist MK-801 is generally accepted as a rat model of psychosis. MK-801 induces stereotypies, hyperactivity and ataxia in rats after intraperitoneal administration.
Locomotor activity of the rats is recorded by the MotiTest Apparatus (TSE, Bad Homburg, Germany). The test area consisted of a squared arena (45×45 cm) with protective plexiglass walls (20 cm of height) where rats could freely move. Horizontal movements were recorded by 32 infrared photocells arranged along the bottom of each wall of the arena. Vertical movements (rearings) were recorded by a horizontal row of 32 infrared photocells 12 cm above the floor. The following parameters were measured by the computer program “ActiMot” (TSE, Bad Homburg, Germany): • 1. active time [s] • 2. total distance travelled [m]
Stereotypies, divided into stereotyped sniffing and other stereotypies, and ataxia are scored by the experimenter every five minutes for one hour (12 intervals) according to the method described by Andiné et al. (1999). The scores of the 12 intervals are added for each parameter.
The day of experiment the female rats are placed in the laboratory and receive the test compound, the reference substance or vehicle at the appropriate time prior to test. […]
At the beginning of the test the rats are placed in the centre of the squared arena of the MotiTest apparatus. Behaviour of the rats is recorded for one hour. After each run animals are removed and the boxes thoroughly cleaned and dried.

[3] = 10 and 30 mg/kg p.o., 23, 5 and 1 h prior to testing
[4] = 30 mg/kg p.o. + flumazenil 5 mg/kg i.p., second trial

Structure (SMILES): O=C1N=C(N2CCCCC2)CN1c1ccc(Cl)cc1 [ELB139, 1-(4-chlorophenyl)-4-piperidinoimidazolin-2-one]
- activity following the return to the homecage (subjective observation) ([1]; 30 mg/kg p.o.): moderate hypoactivity
- climbing time ([1]; 30 mg/kg p.o.): slight but not significant decrease
- duration of swimming ([1]; 30 mg/kg p.o., 23, 5 and 1 h prior to testing): increased
- tolerability ([1]; 10 and 30 mg/kg p.o.): well tolerated
- climbing behaviour [1, 3]: not changed
- time spent immobile [1, 3]: had no effect
- effect on distance travelled when flumazenil is added ([2]; 30 mg/kg p.o. + flumazenil 5 mg/kg i.p., all trials and sum): significantly reversed
- effect on activity when flumazenil is added ([2]; 30 mg/kg p.o. + flumazenil 5 mg/kg i.p., both tests and sum): significantly reversed
- effect on stereotyped sniffing when flumazenil is added ([2]; 30 mg/kg p.o. + flumazenil 5 mg/kg i.p., first trial and sum of both trials): significantly reversed
- effect on stereotyped sniffing when flumazenil is added [2, 4]: distinctly antagonised
- reducing effect on ataxia when flumazenil is added [2, 4]: reversed
- reversing effect of flumazenil on the ataxia effect ([2]; 30 mg/kg p.o. + flumazenil 5 mg/kg i.p., sum of both trials): marginal
- effect on other stereotypies when flumazenil is added ([2]; first trial): rather amplified
- effect on other stereotypies when flumazenil is added ([2]; second trial): distinctly reversed
- effect on other stereotypies when flumazenil is added ([2]; sum of both trials): no change
- MK-801-induced increase of the distance travelled, whole time curve ([2]; 30 mg/kg p.o., both tests and sum): significantly reduced
- MK-801-induced stereotyped sniffing ([2]; 30 mg/kg p.o., discrete trials and sum of both trials): significantly reversed
- MK-801-induced other stereotypies ([2]; 30 mg/kg p.o., first trial): slightly reduced
- MK-801-induced ataxia ([2]; 30 mg/kg p.o., first trial (November 2003)): hardly affected
- activity induced by MK-801, whole time curve ([2]; 30 mg/kg p.o., first trial and sum of both tests): significantly reduced
- activity induced by MK-801, whole time curve ([2]; 30 mg/kg p.o., second trial): distinctly reduced
- MK-801-induced ataxia ([2]; 30 mg/kg p.o., second trial (January 2004)): more pronounced but still not significant
- MK-801-induced other stereotypies ([2]; 30 mg/kg p.o., second trial and sum of both trials): significantly reversed
- MK-801-induced ataxia ([2]; 30 mg/kg p.o., sum of both trials): only a slight reduction
